The subject of experiment [1] is lipoprotein lipase (LPL) and adipocyte P2 gene (aP2). In words: Northern blotting for adipogenic genes in M2 cells. The class given is cell-based, mouse. The following applies: 10 μM Tro with 10 μM 20S, 10 days. Here is the method: RNA isolation and Northern blot analysis—Following treatment of cells under appropriate experimental conditions, total RNA was isolated using the RNA isolation kit from Stratagene (La Jolla, Calif., U.S.A.). Total RNA ([…]) was run on a 1% agarose/formaldehyde gel and transferred to Duralon-UV membranes (Strategene, Calif., U.S.A.) and cross-linked with UV light. The membranes were hybridized overnight at 60 degree C. with ^32P-labeled mouse osteocalcin cDNA probe, mouse lipoprotein lipase (LPL), mouse adipocyte protein 2 (aP2) PCR-generated probes, human 28S or 18S rRNA probes obtained from Geneka Biotechnology (Montreal, Quebec, Canada) and Maxim Biotech (San Francisco, Calif., U.S.A.), respectively. […] The extent of gene induction was determined by densitometry.
Test 2: (A) M2 cells at confluence were treated in RPMI containing 10% FBS with control vehicle or 10 μM troglitazone (Tro) in the absence or presence of 10 μM 20S or 22S oxysterols. After 10 days, adipocytes were visualized by oil Red O staining and quantified by light microscopy, shown in (B). […] After 10 days, total RNA was isolated and analyzed for lipoprotein lipase (LPL), adipocyte P2 gene (aP2) or 18S rRNA expression by Northern blotting as described (Ref). […]

Experiment [2] deals with M2-10B4 marrow stromal cells. Briefly: Matrix mineralization (45Ca incorporation assay, von Kossa staining). The class given is cell-based, mouse. The conditions noted are these: M2 cells in osteogenic medium, 10-14 days. Here is the method: (§1) Von Kossa and oil red O staining—Matrix mineralization in cell monolayers was detected by silver nitrate staining as previously described. Oil red O staining for detection of adipocytes was performed as previously described.
^45Ca incorporation assay—Matrix mineralization in cell monolayers was quantified using the ^45Ca incorporation assay as previously described.
After 14 days, mineralization was identified by a von Kossa staining, which appears black. FIG. 3C is a depiction of von Kossa staining of M2 cells exposed to various conditions. […]

For another experiment, the system named is ERK1 and ERK2. Briefly: Western blot for native and phosphorylated ERK in M2 cells. The conditions noted are these: 5 μM, 1, 4 or 8 hours. The class given is cell-based, mouse. Here is the method:
Western blot analysis—After treatments, cells were lysed in lysis buffer, protein concentrations determined using the Bio-Rad protein assay (Hercules, Calif. U.S.A.), and SDS-PAGE performed as previously described. Probing for native and phosphorylated ERKs was performed as previously reported.
(A) M2 cells at confluence were pretreated for four hours with RPMI containing 1% FBS, followed by treatment with control vehicle or 5 μM 20S oxysterol for 1, 4, or 8 hours. Next total cell extracts were prepared and analyzed for levels of native or phosphorylated ERK (pERK) using specific antibodies as previously described. Data from a representative of four experiments are shown, each treatment shown in duplicate samples. (B) M2 cells at confluence were pretreated for 2 hours with control vehicle (C) or 20 μM PD98059 (PD) in osteogenic medium as previously described. Next, a combination of 22R and 20S oxysterols (RS, 5 μM each) were added to appropriate wells as indicated. After 10 days of incubation, matrix mineralization was quantified by the ^45Ca incorporation assay as previously described. […] (C) M2 cells at confluence were pretreated for 2 hours with 20 µM PD98059 (PD) in RPMI containing 5% FBS. […] After 10 days, adipocytes were visualized by oil Red O staining and quantified by light microscopy as previously described. […]

Experiment [3] relates to M2-10B4 marrow stromal cells. Briefly: Colorimetric alkaline phosphatase (ALP) activity assay on whole cell extracts.
Description: Alkaline phosphatase activity assay: Colorimetric alkaline phosphatase (ALP) activity assay on whole cell extracts was performed as previously described.
Test 1: M2 cells at confluence were treated with control vehicle (C), or 10 µM oxysterols, in an osteogenic medium consisting of RPMI 1640 to which 10% fetal bovine serum (FBS), 50 µg/ml ascorbate and 3 mM beta-glycerophosphate (□GP) were added. After 3 days of incubation, alkaline phosphatase (ALP) activity was determined in cell homogenates by a colorimetric assay.
M2 cells at confluence were treated in osteogenic medium with control vehicle (C) or a combination of 22R and 20S oxysterols, at the indicated concentrations. ALP activity was measured after 3 days as described above.
Test 2: M2 cells were grown in RPMI medium containing 10% fetal bovine serum (FBS). At confluence, the cells were treated in RPMI containing 5% FBS plus ascorbate at 50 μg/ml and β-glycerophosphate at 3 mM to induce osteoblastic differentiation. Adipogenic differentiation was induced by treating the cells in growth medium plus 10˜M troglitazone. A vehicle (C) or oxysterol treatment was applied to cells in a variety of doses (in μM): 20S-Hydroxycholesterol, 25-Hydroxycholesterol, 22R-Hydroxycholesterol; 22S-Hydroxycholesterol; 7-ketocholesterol. Cells were always treated at 90% confluence. After 4 days, alkaline phosphatase activity was determined in whole cell lysates and normalized to protein. Alternatively, MSC cultures were prepared and treated with oxysterols as described above. Cells were treated at 90% confluence with the combination of 22R-Hydroxycholesterol and 20S-Hydroxycholesterol, each at 5 μM, for 4 to 96 hours. The oxysterols where removed and fresh media without oxysterols was added for a total duration of 96 hours. Alkaline phosphatase activity was measured in whole cell extracts and normalized to protein.
Cells were treated with the oxysterols (5 μM) for 4 days after which they were collected and analyzed by colorimetric assay for alkaline phosphatase activity. Results from a representative experiment are shown as the average of quadruplicate determination ±SD.
A further experiment concerns osteocalcin mRNA. Briefly: Northern blotting for osteocalcin mRNA in M2 cells. It counts as cell-based, mouse. The conditions noted are these: M2 cells in osteogenic medium, up to 14 days. Here is the method:
RNA isolation and Northern blot analysis—Following treatment of cells under appropriate experimental conditions, total RNA was isolated using the RNA isolation kit from Stratagene (La Jolla, Calif., U.S.A.). Total RNA ([…]) was run on a 1% agarose/formaldehyde gel and transferred to Duralon-UV membranes (Strategene, Calif., U.S.A.) and cross-linked with UV light. The membranes were hybridized overnight at 60 degree C. with ^32P-labeled mouse osteocalcin cDNA probe, mouse lipoprotein lipase (LPL), mouse adipocyte protein 2 (aP2) PCR-generated probes, human 28S or 18S rRNA probes obtained from Geneka Biotechnology (Montreal, Quebec, Canada) and Maxim Biotech (San Francisco, Calif., U.S.A.), respectively. The PCR products were generated using primer sets synthesized by Invitrogen (Carlsbad, Calif., U.S.A.) with the following specifications: mouse aP2 gene (accession no. M13261); sense (75-95) 5′-[…]-3′, antisense (362-383) 5′-[…]-3′, generating a PCR product of 309 base pairs. Mouse LPL (accession no. XM—134193); sense (1038-1058) 5′-[…]-3′, antisense (1816-1836) 5′-[…]-3′, generating a PCR product of 799 base pairs. […] Following hybridization, the blots were washed twice at room temperature with 2×SSC+0.1% SDS, and then twice at 60 degree C. with 0.5×SSC+0.1% SDS, and exposed to X-ray film. The extent of gene induction was determined by densitometry.
After 4 and 8 days, total RNA from duplicate samples was isolated and analyzed for osteocalcin (Osc) and 28S rRNA expression by Northern blotting as described. FIG. 3E is a radiogram of Northern blotting for osteocalcin mRNA in M2 cells exposed to a control or combination of oxysterols for 4 or 8 days. FIG. 3F is a bar graph depicting the relative demsometric units of osteocalcin mRNA in M2 cells exposed to a control or combination of oxysterols for 4 or 8 days. Data from densitometric analysis of the Northern blot is shown in (F) as the average of duplicate samples, normalized to 28S rRNA.
RNA Isolation and Northern Blot Analysis—Total RNA was isolated using the RNA isolation kit from Stratagene (La Jolla, Calif., USA). Northern blotting and analysis of osteocalcin mRNA and 18S rRNA expression was performed as previously described (23).

Another experiment concerns M2 cells. In words: Troglitazone-induced adipogenesis, oil Red O staining and adipocyte count. The class given is cell-based, mouse. The conditions noted are these: troglitazone 10 μM, oxysterols 10 μM, 8-10 days. Here is the method:
as §1
Test 1: M2 cells at 90% confluence were treated with vehicle (C), PPAR-γ activator, troglitazone 10 uM (Tro), alone or in combination with 10 μM oxysterols 20S-, 22R-, or 25S-hydroxycholesterol. After 8 days, adipocytes were identified by oil Red 0 staining and quantified by counting under a phase contrast microscope. FIG. 6A is a bar graph depicting the effect of oxysterols on reducing adipogenesis of MSC.
Test 2: (A) M2 cells at confluence were treated in RPMI containing 10% FBS with control vehicle or 10 μM troglitazone (Tro) in the absence or presence of 10 μM 20S or 22S oxysterols. After 10 days, adipocytes were visualized by oil Red O staining and quantified by light microscopy, shown in (B). […] (C) M2 cells were treated at confluence with 10 μM Tro, alone or in combination with 10 μM 20S oxysterol. After 10 days, total RNA was isolated and analyzed for lipoprotein lipase (LPL), adipocyte P2 gene (aP2) or 18S rRNA expression by Northern blotting as described (Ref). Data from densitometric analysis of the Northern blot is shown in (D) as the average of duplicate samples, normalized to 18S rRNA.

`CC(C)CCC[C@](C)(O)[C@H]1CC[C@H]2[C@@H]3CC=C4C[C@@H](O)CC[C@]4(C)[C@H]3CC[C@@]21C` [20S-hydroxycholesterol]: the “expression of the adipogenic genes LPL and aP2” value in experiment [1] is recorded as “inhibition of the expression”. In addition, in experiment [2], the mineralization entry was “unable to induce”. Also, the “activation of ERK1 and ERK2” value with ERK1 and ERK2 is “sustained activation”. In addition, in experiment [3] (M2 cells in osteogenic medium, oxysterols 0.5-10 μM, 3-4 days), the “alkaline phosphatase activity (induction)” value is “induced alkaline phosphatase activity”. The compound further registered an alkaline phosphatase activity in experiment [3] (M2 cells, ligands used at 10 μM, control 18±2, ±SD) of 140±12 activity units/mg protein. In the experiment on osteocalcin mRNA, the osteocalcin gene expression entry was “unable to induce”. Also, the inhibition of adipogenesis entry in the experiment on M2 cells was “inhibited adipogenesis”.

The record behind these values is US20090202660A1, “Agents and Methods for Osteogenic Oxysterols Inhibition of Oxidative Stress on Osteogenic Cellular Differentiation” (The Regents of the University of California, priority 2005, published 2009).
